Measurements reported in patent publication US7009052B2, “Sulfonamide derivatives” (Warner Lambert Company LLC, priority 2003, dated 2006).

Biological target: T1, androgen receptor (Homo sapiens, UniProt P10275)
T1 sequence (P10275 1-920 Q868H): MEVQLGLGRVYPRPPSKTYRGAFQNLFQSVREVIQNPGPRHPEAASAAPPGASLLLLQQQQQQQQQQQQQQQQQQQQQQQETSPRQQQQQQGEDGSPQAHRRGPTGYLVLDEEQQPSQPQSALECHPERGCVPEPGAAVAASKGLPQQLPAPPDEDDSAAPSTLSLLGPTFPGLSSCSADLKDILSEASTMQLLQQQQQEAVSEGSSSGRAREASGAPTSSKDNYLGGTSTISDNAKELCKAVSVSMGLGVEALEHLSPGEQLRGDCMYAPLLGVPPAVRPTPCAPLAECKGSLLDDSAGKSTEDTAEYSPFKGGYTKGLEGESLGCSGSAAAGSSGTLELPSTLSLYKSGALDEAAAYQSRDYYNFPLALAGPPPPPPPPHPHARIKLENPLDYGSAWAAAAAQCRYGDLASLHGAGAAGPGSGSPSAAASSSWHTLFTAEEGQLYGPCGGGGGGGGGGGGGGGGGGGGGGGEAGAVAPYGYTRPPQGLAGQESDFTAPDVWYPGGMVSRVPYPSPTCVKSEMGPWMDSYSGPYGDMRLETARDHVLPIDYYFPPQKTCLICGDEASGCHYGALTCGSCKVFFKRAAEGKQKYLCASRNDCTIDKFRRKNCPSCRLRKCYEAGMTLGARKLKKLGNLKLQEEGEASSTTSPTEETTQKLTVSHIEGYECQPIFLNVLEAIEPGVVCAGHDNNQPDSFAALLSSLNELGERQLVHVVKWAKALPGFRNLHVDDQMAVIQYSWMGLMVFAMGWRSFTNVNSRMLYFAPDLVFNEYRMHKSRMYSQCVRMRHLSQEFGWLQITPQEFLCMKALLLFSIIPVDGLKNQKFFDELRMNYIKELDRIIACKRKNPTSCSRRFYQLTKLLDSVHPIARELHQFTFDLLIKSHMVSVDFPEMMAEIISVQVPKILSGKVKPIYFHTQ
Test: AR Antagonist Cell Assay (MMTV-luciferase reporter, DHT-induced)
Type: cell-based
Settings: MDA-MB453-MMTV clone 54-19 cells, 100 pM DHT, 17 hr
Procedure: The compounds ability to antagonize the effects of androgen on the androgen receptor were determined in the protocol described immediately below.
Experimental Procedure for AR Antagonist Cell Assay
Cell line: MDA-MB453-MMTV clone 54-19. This cell line is a stable transfected cell line with MDA-MB453 cell background (human breast tumor cell expressing high level of androgen receptor). A MMTV minimal promoter containing ARE was first cloned in front of a firefly luciferase reporter gene. Then the cascade was cloned into transfection vector pUV120puro. Electroporation method was used for transfecting MDA-MB-453 cell. Puromycin resistant stable cell line was selected.
Cell Culture Media and Reagents:
Culture medium: DMEM (high glucose, Gibco cat #: 11960-044), 10% FBS, and 1% L-glutamine
Plating medium: DMEM (phenol red free), 10% charcoal treated HyClone serum, 1% L-glutamine
Assay medium: DMEM (phenol red free), 1% charcoal treated HyClone serum, 1% L-glutamine, and 1% penicillin/streptomycin
3× luciferase buffer: 2% beta-mercaptoethanol, 0.6% ATP, 0.0135% luciferine in cell lysis buffer
• 1. Cells are maintained in culture medium, splitting cells when they reach 80–90% confluence • 2. To test compounds, 10,000 cells/well are plated to opaque 96 cell culture plate in 100 ul/well plating medium, culture for overnight at 37° C. in cell culture incubator • 3. Carefully remove plating medium, then add 80 ul/well of pre-warmed assay medium, add 10 ul/well testing compound (final concentration at 10 uM or 1 uM), incubate at 37° C. for 30 minutes • 4. Add 10 ul/well freshly prepared DHT (final concentration at 100 pM) to each well, incubate at 37° C. for 17 hr (overnight) • 5. Add 50 ul/well 3× luciferase buffer, incubate at room temperature for 5 minutes, then count on Luminometer The fold induction over background by 100 pM DHT in the absence of testing compounds is standardized as 100% and experimental result is expressed as percentage of inhibition by testing compounds. TABLE3

An IC50 of 10.6 µM was found for `CCCCN(CC)S(=O)(=O)c1ccc2c(c1)c(C(F)(F)F)cc(=O)n2C` [Example 4, 1-Methyl-2-oxo-4-trifluoromethyl-1,2-dihydroquinoline-6-sulfonicacid butylethylamide] in this work.

An IC50 of over 10 µM was found for `CCCCN(CCO)S(=O)(=O)c1ccc2c(c1)c(C(F)(F)F)cc(=O)n2C` [Example 5, 1-Methyl-2-oxo-4-trifluoromethyl-1,2-dihydroquinoline-6-sulfonicacid butyl(2-hydroxyethyl)-amide] in this work.

An IC50 of over 10 µM was found for `Cn1c(=O)cc(C(F)(F)F)c2cc(S(=O)(=O)N(CCO)Cc3ccccc3)ccc21` [Example 6, 1-Methyl-2-oxo-4-trifluoromethyl-1,2-dihydroquinoline-6-sulfonicacid benzyl(2-hydroxyethyl)-amide] in this work.

An IC50 of over 10 µM was found for `CCCCCN(CCO)S(=O)(=O)c1ccc2c(c1)c(C(F)(F)F)cc(=O)n2C` [Example 7, 1-Methyl-2-oxo-4-trifluoromethyl-1,2-dihydroquinoline-6-sulfonicacid (2-hydroxyethyl)-pentylamide] in this work.

An IC50 of over 10 µM was found for `CCCCN(C)S(=O)(=O)c1ccc2c(c1)c(C(F)(F)F)cc(=O)n2C` [Example 8, 1-Methyl-2-oxo-4-trifluoromethyl-1,2-dihydroquinoline-6-sulfonicacid butyimethylamide] in this work.

An IC50 of over 10 µM was found for `Cn1c(=O)cc(C(F)(F)F)c2cc(S(=O)(=O)N(Cc3ccccc3)Cc3ccccc3)ccc21` [Example 9, 1-Methyl-2-oxo-4-trifluoromethyl-1,2-dihydroquinoline-6-sulfonicacid dibenzylamide] in this work.

An IC50 of 6.35 µM was found for `CCN(Cc1ccccc1)S(=O)(=O)c1ccc2c(c1)c(C(F)(F)F)cc(=O)n2C` [Example 10, 1-Methyl-2-oxo-4-trifluoromethyl-1,2-dihydroquinoline-6-sulfonicacid benzylethylamide] in this work.

An IC50 of over 10 µM was found for `CN(c1ccccc1)S(=O)(=O)c1ccc2c(c1)c(C(F)(F)F)cc(=O)n2C` [Example 12, 1-Methyl-2-oxo-4-trifluoromethyl-1,2-dihydroquinoline-6-sulfonicacid methylphenylamide] in this work.

An IC50 of 0.76 µM was found for `Cc1cccc(NS(=O)(=O)c2ccc3c(c2)c(C(F)(F)F)cc(=O)n3C)c1` [Example 13, 1-Methyl-2-oxo-4-trifluoromethyl-1,2-dihydroquinoline-6-sulfonicacid m-tolylamide] in this work.

An IC50 of 1.03 µM was found for `Cc1ccc(NS(=O)(=O)c2ccc3c(c2)c(C(F)(F)F)cc(=O)n3C)cc1` [Example 14, 1-Methyl-2-oxo-4-trifluoromethyl-1,2-dihydroquinoline-6-sulfonicacid p-tolylamide] in this work.

An IC50 of 1.17 µM was found for `C#Cc1ccc(NS(=O)(=O)c2ccc3c(c2)c(C(F)(F)F)cc(=O)n3C)cc1` [Example 15, 1-Methyl-2-oxo-4-trifluoromethyl-1,2-dihydroquinoline-6-sulfonicacid (4-ethynylphenyl)amide] in this work.

An IC50 of 5.03 µM was found for `CCc1cccc(NS(=O)(=O)c2ccc3c(c2)c(C(F)(F)F)cc(=O)n3C)c1` [Example 16, 1-Methyl-2-oxo-4-trifluoromethyl-1,2-dihydroquinoline-6-sulfonicacid (3-ethylphenyl)amide] in this work.

An IC50 of 0.87 µM was found for `CCc1ccc(NS(=O)(=O)c2ccc3c(c2)c(C(F)(F)F)cc(=O)n3C)cc1` [Example 17, 1-Methyl-2-oxo-4-trifluoromethyl-1,2-dihydroquinoline-6-sulfonicacid (4-ethylphenyl)amide] in this work.

An IC50 of over 10 µM was found for `Cc1cccc(C)c1NS(=O)(=O)c1ccc2c(c1)c(C(F)(F)F)cc(=O)n2C` [Example 18, 1-Methyl-2-oxo-4-trifluoromethyl-1,2-dihydroquinoline-6-sulfonicacid (2,6-dimethylphenyl)amide] in this work.

An IC50 of over 10 µM was found for `Cn1c(=O)cc(C(F)(F)F)c2cc(S(=O)(=O)Nc3ccccc3CO)ccc21` [Example 19, 1-Methyl-2-oxo-4-trifluoromethyl-1,2-dihydroquinoline-6-sulfonicacid(2-hydroxymethylphenyl)amide] in this work.

An IC50 of over 10 µM was found for `COc1ccccc1NS(=O)(=O)c1ccc2c(c1)c(C(F)(F)F)cc(=O)n2C` [Example 20, 1-Methyl-2-oxo-4-trifluoromethyl-1,2-dihydroquinoline-6-sulfonicacid (2-methoxyphenyl)amide] in this work.

An IC50 of 0.99 µM was found for `Cn1c(=O)cc(C(F)(F)F)c2cc(S(=O)(=O)Nc3ccc(CC#N)cc3)ccc21` [Example 21, 1-Methyl-2-oxo-4-trifluoromethyl-1,2-dihydroquinoline-6-sulfonicacid (4-cyanomethylphenyl)amide] in this work.

An IC50 of 4.47 µM was found for `Cn1c(=O)cc(C(F)(F)F)c2cc(S(=O)(=O)Nc3ccc4c(c3)CCC4)ccc21` [Example 22, 1-Methyl-2-oxo-4-trifluoromethyl-1,2-dihydroquinoline-6-sulfonicacid indan-5-ylamide] in this work.

An IC50 of over 10 µM was found for `Cn1c(=O)cc(C(F)(F)F)c2cc(S(=O)(=O)Nc3cccc4c3CCC4)ccc21` [Example 23, 1-Methyl-2-oxo-4-trifluoromethyl-1,2-dihydroquinoline-6-sulfonicacid indan-4-ylamide] in this work.

An IC50 of 4.23 µM was found for `CC(=O)c1cccc(NS(=O)(=O)c2ccc3c(c2)c(C(F)(F)F)cc(=O)n3C)c1` [Example 24, 1-Methyl-2-oxo-4-trifluoromethyl-1,2-dihydroquinoline-6-sulfonicacid (3-acetylphenyl)amide] in this work.

An IC50 of 8.61 µM was found for `CC(C)c1ccc(NS(=O)(=O)c2ccc3c(c2)c(C(F)(F)F)cc(=O)n3C)cc1` [Example 25, 1-Methyl-2-oxo-4-trifluoromethyl-1,2-dihydroquinoline-6-sulfonicacid (4-isopropylphenyl)amide] in this work.

An IC50 of 4.04 µM was found for `Cn1c(=O)cc(C(F)(F)F)c2cc(S(=O)(=O)Nc3ccc4c(c3)OCO4)ccc21` [Example 26, 1-Methyl-2-oxo-4-trifluoromethyl-1,2-dihydroquinoline-6-sulfonicacid benzo[1,3]dioxol-5-ylamide] in this work.

An IC50 of 0.84 µM was found for `Cc1ccc(-c2ccccc2)cc1NS(=O)(=O)c1ccc2c(c1)c(C(F)(F)F)cc(=O)n2C` [Example 27, 1-Methyl-2-oxo-4-trifluoromethyl-1,2-dihydroquinoline-6-sulfonicacid (4-methylbipheny-3-yl)amide] in this work.

An IC50 of over 10 µM was found for `CC(O)c1cccc(NS(=O)(=O)c2ccc3c(c2)c(C(F)(F)F)cc(=O)n3C)c1` (stereo not shown) [Example 28, 1-Methyl-2-oxo-4-trifluoromethyl-1,2-dihydro-quinoline-6-sulfonic acid [3-(1-hydroxyethyl)phenyl]-amide] in this work.

An IC50 of 3.72 µM was found for `CSc1cccc(NS(=O)(=O)c2ccc3c(c2)c(C(F)(F)F)cc(=O)n3C)c1` [Example 29, 1-Methyl-2-oxo-4-trifluoromethyl-1,2-dihydroquinoline-6-sulfonicacid (3-methylsulfanylphenyl)amide] in this work.

An IC50 of over 10 µM was found for `Cc1ccc(F)cc1NS(=O)(=O)c1ccc2c(c1)c(C(F)(F)F)cc(=O)n2C` [Example 30, 1-Methyl-2-oxo-4-trifluoromethyl-1,2-dihydroquinoline-6-sulfonicacid (5-fluoro-2-methylphenyl)amide] in this work.

An IC50 of 1.32 µM was found for `Cn1c(=O)cc(C(F)(F)F)c2cc(S(=O)(=O)Nc3ccc(Cl)cc3)ccc21` [Example 31, 1-Methyl-2-oxo-4-trifluoromethyl-1,2-dihydroquinoline-6-sulfonicacid (4-chlorophenyl)amide] in this work.

An IC50 of over 10 µM was found for `Cn1c(=O)cc(C(F)(F)F)c2cc(S(=O)(=O)Nc3cc4ccccc4cn3)ccc21` [Example 32, 1-Methyl-2-oxo-4-trifluoromethyl-1,2-dihydroquinoline-6-sulfonicacid isoquinolin-3-ylamide] in this work.
